Test [1] concerns LNCaP cells. Nature of the test: TUNEL assay (apoptosis, DNA fragmentation). The class given is cell-based, human. Particulars: LNCaP cells exposed for 24 hours, relative to 0.1% DMSO vehicle control. The protocol: METHODS: DNA fragmentation of apoptotic cells was monitored by the TUNEL assay as described by the supplier. Briefly, LNCaP cells were plated at 2×10^5 cells/well in 2-well chamber slides and incubated at 37° C., 5% CO2 for 24 h to allow the cells sufficient time to attach and be in log phase growth at the start of the experiment. The media was aspirated and replaced with media containing vehicle control (DMSO) or drug dissolved in DMSO. The total volume of DMSO/drug added to each well was equal to 0.1% of the media volume in each well. LNCaP cells were treated with vehicle control, and increasing concentrations of Compound 1 and Compound 2 (0.1, 1.0, and 10.0 μM) for 24-48 h. Two wells were treated with the same concentration of the drugs or DMSO for each treatment condition listed above. The media was collected along with the trypsinized cells and centrifuged at 150×g for 4 min. […] Green and red fluorescence emissions were observed microscopically using 520 nm and >620 nm filters, respectively.
RESULTS: The TUNEL assay is used to determine whether cells are undergoing apoptosis (cell death mechanism) as a result of drug treatment. […] TUNEL assay incorporates a dye that labels the 3′ ends of such DNA fragments which are then visualized by fluorescence. […]

Test [2] relates to prostate cancer cell lines DU 145, PC-3, TSU, PPC-1 and LNCaP. Briefly: Cell growth inhibition (sulforhodamine B assay), five prostate cancer cell lines together. Particulars: statement in words. The class given is cell-based, human. The method, then:
(§1) Prostate cancer cell lines were obtained from ATCC. All cells were grown in RPMI-1640 medium containing 2 mM L-glutamine supplemented with 10% fetal bovine serum (FBS) and maintained in a 5% CO2/95% air humidified atmosphere at 37° C.
(§2) Cells were plated on 96-well plates and incubated with drug-containing culture medium (200 μL/well) for 4 (DU 145, PC-3, PPC-1, and TSU) or 6 (LNCaP) days. Medium was replaced with freshly prepared batches every other day during the incubation. At the end of drug treatment, an aliquot of 50 μL of cold (4° C.) trichloroacetic acid (TCA, 50%) was gently layered on the top of growth medium in each well to make a final TCA concentration of 10%. […] The cellular protein-bound SRB was then dissolved with 200 μL unbuffered Tris base (10 mM, pH 10.5) for 30 minutes on a rocking platform shaker, and absorbance at 540 nm was measured by a plate reader.
(§3) Percentage of cell survival was calculated by absorbance at 540 nm in testing wells divided by absorbance in negative control wells (medium without the test compound). […]
(§4) METHODS: LNCaP, DU145, PC-3, TSU, and PPC-1 cells were cultured in 96-well plates and treated with increasing concentrations of the compound of interest for 4 days. Cell survival was determined by the sulforhodamine B assay and was plotted as a percentage of control (drug-free wells) versus drug concentration. […]
On the technique in general: The SRB assay estimates cell density from bound dye.

Test [3] concerns the target T1, cytosolic AR prepared from rat ventral prostates (Rattus norvegicus, UniProt P15207).
T1 construct: cytosolic AR prepared from rat ventral prostates; from tissue; host or cells: rat ventral prostate cytosol
T1 sequence (P15207 1-902): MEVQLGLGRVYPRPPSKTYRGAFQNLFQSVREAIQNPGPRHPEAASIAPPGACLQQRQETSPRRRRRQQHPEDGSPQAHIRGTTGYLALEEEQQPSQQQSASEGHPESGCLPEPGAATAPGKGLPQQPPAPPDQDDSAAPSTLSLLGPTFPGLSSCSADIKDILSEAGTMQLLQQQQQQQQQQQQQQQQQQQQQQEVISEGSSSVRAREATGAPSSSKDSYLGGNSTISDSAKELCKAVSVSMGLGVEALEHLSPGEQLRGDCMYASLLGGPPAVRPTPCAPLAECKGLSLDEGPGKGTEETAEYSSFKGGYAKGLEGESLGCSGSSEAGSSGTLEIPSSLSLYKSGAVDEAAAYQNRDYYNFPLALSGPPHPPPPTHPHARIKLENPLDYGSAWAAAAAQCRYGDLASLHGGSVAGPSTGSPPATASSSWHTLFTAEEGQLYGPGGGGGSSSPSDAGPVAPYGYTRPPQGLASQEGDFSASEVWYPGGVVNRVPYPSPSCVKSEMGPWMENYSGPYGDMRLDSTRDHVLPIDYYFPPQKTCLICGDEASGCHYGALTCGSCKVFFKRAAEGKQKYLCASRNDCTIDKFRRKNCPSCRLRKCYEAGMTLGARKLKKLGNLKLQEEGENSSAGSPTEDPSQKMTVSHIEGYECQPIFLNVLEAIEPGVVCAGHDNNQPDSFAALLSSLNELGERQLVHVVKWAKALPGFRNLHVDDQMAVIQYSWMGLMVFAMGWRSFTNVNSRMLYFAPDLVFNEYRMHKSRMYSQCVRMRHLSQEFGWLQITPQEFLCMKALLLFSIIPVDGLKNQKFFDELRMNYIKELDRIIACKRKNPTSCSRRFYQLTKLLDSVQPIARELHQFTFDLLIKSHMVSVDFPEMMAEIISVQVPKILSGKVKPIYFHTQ
Briefly: Androgen receptor radioligand competitive binding assay (3H-mibolerone). The method, then: The AR binding affinity of test compounds was determined by a radioligand competitive binding assay with cytosolic AR prepared from rat ventral prostates. […] After incubation, the protein-bound radioactivity was separated from free radioactivity by HAP precipitation. The bound radioactivity was then extracted from HAP by ethanol, and counted in a Beckman LS6800 liquid scintillation counter (Beckman Instruments Inc., Palo Alto, Calif.). Nonspecific binding was determined separately by including 1,000 nM of unlabeled MIB in the incubate. The binding data was fitted to the equation B=B0*[1-C/(IC50+C)] using WinNonlin.

Test [4] relates to LNCaP cells. Nature of the test: Cell growth inhibition (sulforhodamine B assay), LNCaP. Particulars: for Sensitivity of LNCaP cells compared with other cell lines: LNCaP the only androgen receptor expressing cell line tested; for IC50: Homo sapiens, LNCaP, SRB assay. The test is classed as cell-based, human. The protocol: as §1
Cells were plated on 96-well plates and incubated with drug-containing culture medium (200 μL/well) for 4 (DU 145, PC-3, PPC-1, and TSU) or 6 (LNCaP) days. Medium was replaced with freshly prepared batches every other day during the incubation. At the end of drug treatment, an aliquot of 50 μL of cold (4° C.) trichloroacetic acid (TCA, 50%) was gently layered on the top of growth medium in each well to make a final TCA concentration of 10%. The mixtures were incubated at 4° C. for 1 hour, and then washed 5 times with tap water to remove TCA, growth medium, low-molecular-weight metabolites, and serum proteins. The plates were air dried overnight. Next, fixed cells were stained with 50 μL of SRB solution (0.4%, wt/vol) for 10 minutes. After staining, SRB solution was decanted, and plates were quickly rinsed 5 times with 1% acetic acid to remove unbound dye and air dried overnight. The cellular protein-bound SRB was then dissolved with 200 μL unbuffered Tris base (10 mM, pH 10.5) for 30 minutes on a rocking platform shaker, and absorbance at 540 nm was measured by a plate reader.
Percentage of cell survival was calculated by absorbance at 540 nm in testing wells divided by absorbance in negative control wells (medium without the test compound). Percentages of cell survival versus drug concentrations were plotted and the concentration of drug that inhibited cell growth by 50% (IC50) was determined by nonlinear regression using WinNonlin (Pharsight Corporation, Mountain View, Calif.).
METHODS: LNCaP, DU145, PC-3, TSU, and PPC-1 cells were cultured in 96-well plates and treated with increasing concentrations of the compound of interest for 4 days. Cell survival was determined by the sulforhodamine B assay and was plotted as a percentage of control (drug-free wells) versus drug concentration. The concentration of drug that inhibited cell growth by 50% (IC50) was determined by non-linear regression. Known anticancer drugs were used as cytotoxic positive controls.

Test [5] has as its system LNCaP cells. Nature of the test: Growth curve (trypan blue cell count, 120 h), LNCaP compared with other lines. The class given is cell-based, human. The protocol: METHODS: Cells were plated at 5-10×10^4 cells/well in five 6-well plates and incubated at 37° C., 5% CO2 for 24 h to allow the cells sufficient time to attach and be in log phase growth at the start of the experiment. The media was aspirated from four of the plates and replaced with media containing vehicle control (DMSO) or drug dissolved in DMSO. The total volume of DMSO/drug added to each well was equal to 0.1% of the media volume in each well. LNCaP, PC-3, MCF-7, and CV-1 cells were treated with vehicle control, and increasing concentrations of Compound 1 and Compound 2 (0.01, 0.05, 0.1, 0.5, 1.0, 5.0, and 10.0 μM). Three wells were treated with the same concentration of the drugs or DMSO for each treatment condition listed above. The cells from the remaining 6-well plate were collected and counted to determine plating efficiency. The 6-well plates containing DMSO/drug were incubated for 120 h at 37° C., 5% CO2. After 120 h, the media from each well was collected along with trypsinized cells and centrifuged at 150×g for 4 min. The cells were resuspended in 1 mL of media, from which 90 μl was taken and combined with 10 μl trypan blue for counting on a hemacytometer.

Test [6] has as its system TSU cells. Nature of the test: Cell growth inhibition (sulforhodamine B assay), TSU. The test is classed as cell-based. Particulars: Homo sapiens, 96 h, SRB assay, 4 days treatment. The protocol:
as §1, §2, §3, §4

Test [7] concerns DU 145 cells. Nature of the test: Cell growth inhibition (sulforhodamine B assay), DU145. The class given is cell-based. Particulars: Homo sapiens, DU-145, 96 h, SRB assay, 4 days treatment. The method, then:
as §1, §2, §3, §4

Test [8] concerns PC-3 cells. Nature of the test: Cell growth inhibition (sulforhodamine B assay), PC-3. The test is classed as cell-based. Particulars: Homo sapiens, PC-3, 96 h, SRB assay, 4 days treatment. The method, then: as §1, §2, §3, §4
For test [9], the system named is PPC-1 cells. Briefly: Cell growth inhibition (sulforhodamine B assay), PPC-1. The class given is cell-based. Particulars: Homo sapiens, PPC-1, 96 h, SRB assay, 4 days treatment. The protocol: as §1, §2, §3, §4

As to `C[C@](O)(COc1ccc(NC(=O)CBr)cc1)C(=O)Nc1ccc([N+](=O)[O-])c(C(F)(F)F)c1` [Compound 1], the “Apoptosis, DNA fragmentation (green fluorescence)” value in test [1] was “exhibit green fluorescence”. The “IC50 values in inhibiting the growth of all five prostate cancer cell lines” value in test [2] is listed as “low micro-molar range”. Further, the Ki – broadly, a measure of affinity in units of concentration, obtained from inhibition or displacement – in [3] worked out at 0.0139 ± 0.0014 µM. Further, the “Sensitivity of LNCaP cells compared with other cell lines” value in test [4] is given as “not more sensitive”. In [5] (LNCaP versus PC-3, MCF-7 and CV-1 cells, 0.01-10.0 μM), the “Growth inhibitory activity against various cancer cell lines” value was “non-selective growth inhibitory activity”.

As for `C[C@](O)(COc1ccc(NC(=O)CCl)cc1)C(=O)Nc1ccc([N+](=O)[O-])c(C(F)(F)F)c1` [Compound 2], in test [1], the “Apoptosis, DNA fragmentation (green fluorescence)” value is listed as “similar”. Also, the “IC50 values in inhibiting the growth of all five prostate cancer cell lines” value in [2] is “low micro-molar range”. In test [3], this compound registered a Ki of 0.0019 ± 0.0003 µM. The “Sensitivity of LNCaP cells compared with other cell lines” value in test [4] was “not more sensitive”. Further, the “Fold sensitivity of LNCaP cells over PC-3 or CV-1 cells” value in [5] (growth curve) was “approximately 10 fold”.

As to `C[C@@H]1CC2=CC(=O)CC[C@@H]2[C@H]2CC[C@@]3(C)[C@@H](CC[C@]3(C)O)[C@@H]21` [Compound 3H-MIB, 3H-mibolerone], the Kd (usually a measure of binding affinity in units of concentration) in [3] (determined in preliminary experiments, read-out: Kd, equilibrium dissociation constant of 3H-MIB) turned out to be 0.00019 ± 1e-05 µM.

On to `N[C@@H](Cc1ccc(N(CCCl)CCCl)cc1)C(=O)O` [Melphalan], for which the IC50 – broadly, the point on the concentration scale where inhibition reaches its midpoint – in test [6] (Melphalan line, unit nM) amounted to 4 ± 0.2 nM; in test [7] (Melphalan line, unit nM), 31 nM; in test [8] (Melphalan line, unit nM), 30.4 ± 3.1 nM; in [9] (Melphalan line, unit nM), 16.2 nM; in [4] (4 or 6 days treatment, Melphalan line, unit nM), 10.3 nM.

On to `C[C@@](O)(CBr)C(=O)Nc1ccc([N+](=O)[O-])c(C(F)(F)F)c1` [S-NTBA], for which the IC50 was determined as 3500 ± 200 nM in test [6]; 4700 ± 300 nM in test [7]; 3100 ± 500 nM in [8]; 2200 ± 200 nM in [9]; 1300 ± 200 nM in [4] (4 days or 6 days treatment).

The values are drawn from patent publication US20040167103A1, “Haloacetamide and azide substituted compounds and methods of use thereof” (priority 2003, published 2004).
